Reference: patent US20090246481A1, “DISPERSION OF WATER-INSOLUBLE COLORANT, METHOD OF PRODUCING SUBSTANCE CONTAINING WATER-INSOLUBLE COLORANT, FINE PARTICLES OF WATER-INSOLUBLE COLORANT, DISPERSING AGENT FOR WATER-INSOLUBLE COLORANT, AND RECORDING LIQUID, INK SET, PRINTED ARTICLE, METHOD OF FORMING IMAGE AND IMAGE FORMING APPARATUS …” (FUJIFILM Corporation, priority 2008, published 2009)

Test: pKa of monomers by neutralization titration
Format: physicochemical
Details: tetrahydrofuran/water=6:4
Experimental: The pKa value of each monomer was calculated in accordance with a neutralization titration method in a system of tetrahydrofuran/water=6:4 by means of an automatic titrator COM-2500 (trade name) manufactured by Hiranuma Sangyo Co., Ltd.

Row | pKa | Structure (SMILES)
1 | 3.96 | C=C(C)C(=O)NS(C)(=O)=O [Monomer 1]
2 | 3.98 | C=C(C)C(=O)O [Methacrylic acid]
